The series relates to CCRIS mutagenicity, Ames/micronucleus/aberration tests. Briefly: CCRIS mutagenicity studies.
The mark [1] stands for this setting: Test System: AMES SALMONELLA TYPHIMURIUM, Strain/Indicator: TA98, Metabolic Activation: NONE, Method: PREINCUBATION
The mark [2] stands for this setting: Test System: AMES SALMONELLA TYPHIMURIUM, Strain/Indicator: TA98, Metabolic Activation: RAT, LIVER, S-9, AROCLOR 1254, Method: PREINCUBATION
[3] abbreviates: Test System: AMES SALMONELLA TYPHIMURIUM, Strain/Indicator: TA100, Metabolic Activation: NONE, Method: PREINCUBATION
Where [4] appears, read: Test System: AMES SALMONELLA TYPHIMURIUM, Strain/Indicator: TA100, Metabolic Activation: RAT, LIVER, S-9, AROCLOR 1254, Method: PREINCUBATION
Setting [5] is: Test System: AMES SALMONELLA TYPHIMURIUM, Strain/Indicator: TA1535, Metabolic Activation: NONE, Method: PREINCUBATION
[6] abbreviates: Test System: AMES SALMONELLA TYPHIMURIUM, Strain/Indicator: TA1535, Metabolic Activation: RAT, LIVER, S-9, AROCLOR 1254, Method: PREINCUBATION
Where [7] appears, read: Test System: AMES SALMONELLA TYPHIMURIUM, Strain/Indicator: TA1537, Metabolic Activation: NONE, Method: PREINCUBATION
Where [8] appears, read: Test System: AMES SALMONELLA TYPHIMURIUM, Strain/Indicator: TA1537, Metabolic Activation: RAT, LIVER, S-9, AROCLOR 1254, Method: PREINCUBATION
Setting [9] is: Test System: AMES SALMONELLA TYPHIMURIUM, Strain/Indicator: TA98, Metabolic Activation: NONE, Method: STANDARD PLATE.
The mark [10] stands for this setting: Test System: AMES SALMONELLA TYPHIMURIUM, Strain/Indicator: TA100, Metabolic Activation: NONE, Method: STANDARD PLATE.
Setting [11] is: Test System: AMES SALMONELLA TYPHIMURIUM, Strain/Indicator: TA98, Metabolic Activation: RAT, LIVER, S-9, AROCLOR 1254, Method: STANDARD PLATE.
Setting [12] is: Test System: AMES SALMONELLA TYPHIMURIUM, Strain/Indicator: TA100, Metabolic Activation: RAT, LIVER, S-9, AROCLOR 1254, Method: STANDARD PLATE.
Setting [13] is: Test System: AMES SALMONELLA TYPHIMURIUM, Strain/Indicator: TA1535, Metabolic Activation: NONE, Method: STANDARD PLATE.
Where [14] appears, read: Test System: AMES SALMONELLA TYPHIMURIUM, Strain/Indicator: TA1535, Metabolic Activation: RAT, LIVER, S-9, AROCLOR 1254, Method: STANDARD PLATE.
[15] abbreviates: Test System: AMES SALMONELLA TYPHIMURIUM, Strain/Indicator: TA1537, Metabolic Activation: NONE, Method: STANDARD PLATE.
[16] abbreviates: Test System: AMES SALMONELLA TYPHIMURIUM, Strain/Indicator: TA1537, Metabolic Activation: RAT, LIVER, S-9, AROCLOR 1254, Method: STANDARD PLATE.

Drawing on PubChem BioAssay AID1259407 (Chemical Carcinogenesis Research Information System (CCRIS), 2018), this text covers mutagenic call for 11 compounds.

Activity calls are given as the source filed them. No rule for the calls is given here.

Consider `O=c1c(=O)c2c([N+](=O)[O-])ccc3ccc4cccc1c4c32`, for which the mutagenic call runs as follows: under setting [1], “active; positive”; under setting [2], “active; positive”; under setting [3], “active; positive”; under setting [4], “active; positive”.
Consider `Oc1cc(Cl)ccc1Cl`, for which the mutagenic call reads like this: (Test System: AMES SALMONELLA TYPHIMURIUM, Strain/Indicator: TA98, Metabolic Activation: HAMSTER, LIVER, S-9, AROCLOR 1254, Method: PREINCUBATION) “inactive; negative”; under setting [1], “inactive; negative”; under setting [2], “inactive; negative”; (Test System: AMES SALMONELLA TYPHIMURIUM, Strain/Indicator: TA100, Metabolic Activation: HAMSTER, LIVER, S-9, AROCLOR 1254, Method: PREINCUBATION) “inactive; negative”; under setting [3], “inactive; negative”; under setting [4], “inactive; negative”. Further, the mutagenic call by setting is: (Test System: AMES SALMONELLA TYPHIMURIUM, Strain/Indicator: TA1535, Metabolic Activation: HAMSTER, LIVER, S-9, AROCLOR 1254, Method: PREINCUBATION) “inactive; negative”; under setting [5], “inactive; negative”; under setting [6], “inactive; negative”; (Test System: AMES SALMONELLA TYPHIMURIUM, Strain/Indicator: TA1537, Metabolic Activation: HAMSTER, LIVER, S-9, AROCLOR 1254, Method: PREINCUBATION) “inactive; negative”; under setting [7], “inactive; negative”; under setting [8], “inactive; negative”. Further, the mutagenic call is, setting by setting: (Test System: CHINESE HAMSTER OVARY CELLS, Strain/Indicator: CHO-K1-BH4 (HPRT)/6-THIOGUANINE, Metabolic Activation: NONE, Method: PREINCUBATION) “inactive; negative”; (Test System: CHINESE HAMSTER OVARY CELLS, Strain/Indicator: CHO-K1-BH4 (HPRT)/6-THIOGUANINE, Metabolic Activation: S-9, Method: PREINCUBATION) “inactive; negative”.
For the compound `CC(=O)c1ccco1`, the mutagenic call was “inactive; negative” under setting [9]; “active; positive” (Test System: AMES SALMONELLA TYPHIMURIUM, Strain/Indicator: TA98, Metabolic Activation: S-9, Method: STANDARD PLATE); “inactive; negative” under setting [10]; “inactive; negative” (Test System: AMES SALMONELLA TYPHIMURIUM, Strain/Indicator: TA100, Metabolic Activation: S-9, Method: STANDARD PLATE).
For `CC1CCC(C(C)C)C(=O)C1` (stereo not given), the mutagenic call runs as follows: (Test System: AMES SALMONELLA TYPHIMURIUM, Strain/Indicator: TA97, Metabolic Activation: NONE, Method: STANDARD PLATE) “active; positive”; under setting [9], “inactive; negative”; under setting [11], “inactive; negative”; under setting [10], “inactive; negative”; under setting [12], “inactive; negative”; under setting [13], “inactive; negative”. Also, the mutagenic call is “inactive; negative” under setting [14], “inactive; negative” under setting [15] and “inactive; negative” under setting [16].
With `COc1ccc2c(ccc3oc([N+](=O)[O-])cc32)c1`, the mutagenic call is “active; positive” (Test System: AMES SALMONELLA TYPHIMURIUM, Strain/Indicator: TA100(NR), Metabolic Activation: NONE, Method: STANDARD PLATE) and “active; positive” under setting [10].
In the case of `Fc1c(F)c(Cl)c(F)c(Cl)c1F`, the mutagenic call under setting [1] was “inactive; negative”; the mutagenic call under setting [2] is “inactive; negative”; the mutagenic call under setting [3] was “inactive; negative”; the mutagenic call under setting [4] is “inactive; negative”; the mutagenic call under setting [5] was “inactive; negative”; the mutagenic call under setting [6] is “inactive; negative”. Besides, the mutagenic call is “inactive; negative” under setting [7]; “inactive; negative” under setting [8]; “inactive; negative” (Test System: AMES SALMONELLA TYPHIMURIUM, Strain/Indicator: TA1538, Metabolic Activation: NONE, Method: PREINCUBATION); “inactive; negative” (Test System: AMES SALMONELLA TYPHIMURIUM, Strain/Indicator: TA1538, Metabolic Activation: RAT, LIVER, S-9, AROCLOR 1254, Method: PREINCUBATION); “inactive; negative” (Test System: CHINESE HAMSTER OVARY, Strain/Indicator: CHO-K1-BH4 (HGPRT)/6-THIOGUANINE, Metabolic Activation: NONE, Method: SUSPENSION/PLATE); “inactive; negative” (Test System: CHINESE HAMSTER OVARY, Strain/Indicator: CHO-K1-BH4 (HGPRT)/6-THIOGUANINE, Metabolic Activation: RAT, LIVER, S-9, AROCLOR 1254, Method: SUSPENSION/PLATE).
With `O=C1CCCN1c1ncc([N+](=O)[O-])s1`, the mutagenic call is “active; positive” under setting [9] and “inactive; negative” under setting [10].
`CCCCCCCCCCCCCc1ccccc1`: the mutagenic call reads like this: under setting [9], “inactive; negative”; (Test System: AMES SALMONELLA TYPHIMURIUM, Strain/Indicator: TA98, Metabolic Activation: RAT, LIVER, S-9, AROCLOR 1254 (10%), Method: STANDARD PLATE) “inactive; negative”; under setting [10], “inactive; negative”; (Test System: AMES SALMONELLA TYPHIMURIUM, Strain/Indicator: TA100, Metabolic Activation: RAT, LIVER, S-9, AROCLOR 1254 (10%), Method: STANDARD PLATE) “inactive; negative”; under setting [13], “inactive; negative”; (Test System: AMES SALMONELLA TYPHIMURIUM, Strain/Indicator: TA1535, Metabolic Activation: RAT, LIVER, S-9, AROCLOR 1254 (10%), Method: STANDARD PLATE) “inactive; negative”. Moreover, the mutagenic call is, setting by setting: under setting [15], “inactive; negative”; (Test System: AMES SALMONELLA TYPHIMURIUM, Strain/Indicator: TA1537, Metabolic Activation: RAT, LIVER, S-9, AROCLOR 1254 (10%), Method: STANDARD PLATE) “inactive; negative”; (Test System: CHINESE HAMSTER OVARY, Strain/Indicator: CHO (HGPRT), Metabolic Activation: NONE) “inactive; negative”; (Test System: CHINESE HAMSTER OVARY, Strain/Indicator: CHO (HGPRT), Metabolic Activation: RAT, LIVER, S-9, AROCLOR 1254 (1%)) “inactive; negative”.
Consider `Cc1ccc(C=O)cc1`, for which the mutagenic call runs as follows: under setting [1], “inactive; negative”; under setting [2], “inactive; negative”; under setting [3], “inactive; negative”; under setting [4], “inactive; negative”; (Test System: AMES SALMONELLA TYPHIMURIUM, Strain/Indicator: TA102, Metabolic Activation: NONE, Method: PREINCUBATION) “inactive; negative”; (Test System: AMES SALMONELLA TYPHIMURIUM, Strain/Indicator: TA102, Metabolic Activation: RAT, LIVER, S-9, AROCLOR 1254, Method: PREINCUBATION) “inactive; negative”.
As for `c1cc2ccc3ccnc4ccc(c1)c2c34`, the mutagenic call is “active; positive” under setting [9], “active; positive” under setting [11], “inactive; negative” under setting [10] and “active; positive” under setting [12].
In the case of `O=[N+]([O-])O[C@H]1CO[C@H]2[C@@H]1OC[C@H]2O[N+](=O)[O-]`, the mutagenic call was “inactive; negative” under setting [9]; “inactive; negative” under setting [11]; “inactive; negative” under setting [10]; “inactive; negative” under setting [12]; “inactive; negative” under setting [13]; “inactive; negative” under setting [14]. Further, the mutagenic call by setting is: under setting [15], “inactive; negative”; under setting [16], “inactive; negative”.
